Values after ≈ are worked out from the molar mass of the structure shown. Like-named read-outs stand apart in the source and are kept apart here.
Legend:
[1] = Measurement of solubility (shake-flask method); type: physicochemical; conditions: thermodynamic from solid, 37° C., shaken 2 hr
Description: According to the method described in “Thermodynamic Solubility Measurement by the Shake-Flask Method” on page 1229 of Nakashima S., Chem. Pharm. Bull., 61(12) 1228-1238 (2013), the solubility of the crystals and cocrystals of compound (A) was measured. To be specific, the first fluid (JP1), the second fluid (JP2) and the second fluid containing 20 mM sodium glycochenodeoxycholate (JP2/GCDC) of the Japanese Pharmacopoeia disintegration test were added at 400 μL each to the crystals or cocrystals (0.4 mg) of compound (A), and the mixture was heated to 37° C. under air atmosphere, and shaken by a vortex mixer for 2 hr at 500 rpm. After shaking, the mixture was passed through a 0.45 μm PVDF filter, and the filtrate was analyzed by HPLC. From a chromatogram comparison with the standard solution (0.1 mg/mL), the solubility of the crystals of the single compound and the cocrystals was calculated.

[2] = Measurement of dissolution rate (intrinsic dissolution test); type: physicochemical; conditions: 7 mm disc, 200 rpm, second fluid containing cholic acid, 37° C.
Description: According to the method described in “2.6. Intrinsic dissolution test” on page 231 of Tsutsumi S., Int. J. Pharm., 421 (2011) 230-236, the dissolution rate of the crystals and cocrystals of compound (A) was measured. To be specific, the crystals or cocrystals of compound (A) (20 mg) was pressurized by a hand press tableting machine at 20 MPa for 10 min to give a 7 mm diameter disc. The prepared disc was adhered to the inside of a rotating shaft of the United States Pharmacopeia dissolution test 1 (basket), and inserted, while rotating at 200 rpm, in the second fluid (250 mL) of the Japanese Pharmacopoeia disintegration test containing cholic acid heated to 37° C. The second fluid containing the crystals or cocrystals was collected by 0.5 mL at 1 min intervals, and analyzed by HPLC. From a chromatogram comparison with the standard solution (0.05 mg/mL), the concentration of the crystals or the cocrystals was calculated, and the dissolution rate thereof was calculated.

Description for physchem: The base pKa of the compound (A) and the acid pKa of the gentisic acid were measured using a Sirius T3 titrator manufactured by Sirius. The base pKa means an acid dissociation constant from the protonated state, and the acid pKa means the acid dissociation constant of the acid itself.

C=CC(=O)N1CC[C@H](Oc2nc(-c3n[nH]c(=O)[nH]3)cc3ccccc23)C1 [compound (A), (S)-3-(1-((1-acryloylpyrrolidin-3-yl)oxy)isoquinolin-3-yl)-1H-1,2,4-triazol-5(4H)-one]
solubility at 2 h ([1]; pH 1.2, simulated gastric fluid, first fluid (JP1) of Japanese Pharmacopoeia disintegration test, read-out: solubility JP1): 1.5 µg/mL (≈ 4.27 µM)
solubility at 2 h ([1]; pH 6.8, aqueous buffer, second fluid (JP2) of Japanese Pharmacopoeia disintegration test, read-out: solubility JP2): 1.5 µg/mL (≈ 4.27 µM)
solubility at 2 h ([1]; pH 6.8, fassgf or other biorelevant, second fluid containing 20 mM sodium glycochenodeoxycholate, read-out: solubility JP2/GCDC): 35.6 µg/mL (≈ 101 µM)
dissolution rate [2]: 0.2 μg/mm^2/min

O=C(O)c1cc(O)ccc1O [gentisic acid]
pKa (physchem): 3.23

Source: patent US10836745B2, “Cocrystal, production method thereof, and medicament containing cocrystal” (Takeda Pharmaceutical Company Limited, priority 2015, dated 2020)
